Data from patent US8772495B2, “5-lipoxygenase-activating protein inhibitor” (Panmira Pharmaceuticals, LLC, priority 2008, dated 2014).
Values joined by “and” are separate entries in the source; they are usually repeats but may differ in a detail not shown here. Identical values can stand only once. Like-named read-outs stand apart in the source and are kept apart here.

Assays:
CYP2C9 = CYP2C9 (Homo sapiens (Human), UniProt P11712); test: Extracellular cytochrome P450 inhibition (microsomes); type: in vitro ADME; settings: concentrations up to and exceeding 40 μM
Chain of CYP2C9 (P11712 whole entry, looked up): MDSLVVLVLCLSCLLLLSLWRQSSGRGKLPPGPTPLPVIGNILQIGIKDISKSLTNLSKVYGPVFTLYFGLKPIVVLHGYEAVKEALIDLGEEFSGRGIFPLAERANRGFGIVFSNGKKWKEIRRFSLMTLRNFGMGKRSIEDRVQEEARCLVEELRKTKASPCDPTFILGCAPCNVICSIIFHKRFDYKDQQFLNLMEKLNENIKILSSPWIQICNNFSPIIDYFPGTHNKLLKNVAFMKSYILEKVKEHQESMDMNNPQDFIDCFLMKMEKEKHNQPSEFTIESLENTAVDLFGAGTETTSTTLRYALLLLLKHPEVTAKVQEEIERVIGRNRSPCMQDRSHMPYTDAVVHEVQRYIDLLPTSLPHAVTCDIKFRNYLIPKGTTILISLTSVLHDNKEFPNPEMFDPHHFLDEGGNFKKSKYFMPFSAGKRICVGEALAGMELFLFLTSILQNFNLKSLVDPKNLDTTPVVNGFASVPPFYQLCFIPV
Description: Aliquots of this mixture (89 μL) were delivered to each well of a 96-well polypropylene plate which contained an aliquot of inhibitor (1 μL). Final solvent concentrations were 1% (v/v) or less. Incubations were commenced with the addition of 10 μL β-NADPH (10 mM stock) to a final volume of 100 μL. […] Samples were centrifuged, and supernatant was transferred for LC-MS analysis.

[1] = system: LTB4 in Washed Human Leukocytes; test: Inhibition of LTB4 in washed human leukocytes; type: cell-based; settings: individual tests 1-4
[2] = Phase I study: pharmacokinetics after single and multiple oral doses; type: in vivo; settings: human, plasma
From the text: Study Design: Single center, double-blind, randomized, placebo-controlled, single ascending dose followed by multiple ascending dose study.
Sample Size: (1) Single Dose Phase: eight (8) subjects (6 active, 2 placebo) per dose level; up to 5 dose levels are planned (a total of 40 subjects if all 5 dose levels are completed); and (2) Multiple Dose Phase: eight (8) subjects (6 active, 2 placebo) per dose level; up to 4 dose levels are planned (a total of 32 subjects if all 4 dose levels are completed).
Formulations: Compound 2 was supplied as an oral powder for reconstitution. Placebo solution matched. […] The placebo differed only in the absence of the active.
The following dosing cohorts were used:
Routes of Administration: All doses were administered orally with approximately 100 mL of water rinse. Subjects were fasted for at least 8 hours prior to dosing and for 2 hours after dosing. For BID dosing in the Multiple Dose Phase, when applicable, subjects were fasted for at least 2 hours prior to the second daily dose.
Plasma concentrations of Compound 1 were determined using a validated LC/MS method. Whole blood ionophore-stimulated leukotriene LTB4 and urinary LTE4 production were assayed by ELISA and mass spectrometry, respectively.
Analysis of Samples: Concentrations of Compound 1 was determined in plasma samples collected from subjects. Similarly, concentrations of LTB4 in plasma and urinary LTE4 were determined in blood and urine samples collected.

[3] = in vivo, po, 250 mg/kg/day
Description: Twenty-four hours following the final drug administration mice were placed into an enclosed Plexiglas chamber and exposed to CO2 for a period of 30-60 seconds or until breathing ceased. They were then removed subject to cervical dislocation and blood taken via a cardiac puncture. Mice were next placed in a supine position and a midline incision made. All organs were inspected and the livers removed by careful dissection. Liver weights were recorded as well as any gross abnormalities.

[4] = Plasma binding (equilibrium dialysis); type: in vitro ADME; settings: read-out: % Bound (converted)
Description: Experiments were performed using equilibrium dialysis.

[5] = Single-dose pharmacokinetics in beagle dogs; type: in vivo, female beagle dogs; settings: for Cmax: Oral
CYP2C19 = CYP2C19 (Homo sapiens (Human), UniProt P33261); test: Extracellular cytochrome P450 inhibition (microsomes); type: in vitro ADME; settings: concentrations up to and exceeding 40 μM
Chain of CYP2C19 (P33261 whole entry): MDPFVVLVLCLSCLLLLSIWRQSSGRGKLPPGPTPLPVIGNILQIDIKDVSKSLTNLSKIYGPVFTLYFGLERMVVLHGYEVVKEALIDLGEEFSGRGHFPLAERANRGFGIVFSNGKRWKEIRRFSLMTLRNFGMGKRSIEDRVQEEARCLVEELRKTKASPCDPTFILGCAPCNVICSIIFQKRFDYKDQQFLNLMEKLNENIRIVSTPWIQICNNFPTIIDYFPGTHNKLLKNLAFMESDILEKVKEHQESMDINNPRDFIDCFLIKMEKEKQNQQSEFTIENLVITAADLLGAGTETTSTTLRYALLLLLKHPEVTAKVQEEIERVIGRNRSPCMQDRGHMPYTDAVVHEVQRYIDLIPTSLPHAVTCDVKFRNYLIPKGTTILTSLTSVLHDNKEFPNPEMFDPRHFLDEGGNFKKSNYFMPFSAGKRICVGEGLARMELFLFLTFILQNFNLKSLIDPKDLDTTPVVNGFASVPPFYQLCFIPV
From the text: Final solvent concentrations were 1% (v/v) or less.

[6] = oral, 10 mg, multiple dose 10 mg, Day 1
[7] = oral, 10 mg, multiple dose 10 mg, Day 11
[8] = oral, 50 mg, multiple dose 50 mg, Day 1
[9] = oral, 50 mg, multiple dose 50 mg, Day 11
[10] = oral, 150 mg, multiple dose 150 mg, Day 1
[11] = oral, 150 mg, multiple dose 150 mg, Day 11
[12] = oral, 450 mg, multiple dose 450 mg, Day 1
[13] = oral, 450 mg, multiple dose 450 mg, Day 11
[14] = po, 50 mg, single dose 50 mg, oral solution
[15] = po, 150 mg, single dose 150 mg, oral solution
[16] = po, 300 mg, single dose 300 mg, oral solution
[17] = po, 600 mg, single dose 600 mg, oral solution
[18] = po, 1000 mg, single dose 1000 mg, oral solution
[19] = female, beagle, dog, plasma, po, 5 mg/kg, 0.5% Methylcellulose, Fasted
[20] = female, beagle, dog, plasma, po, 5 mg/kg, 0.5% Methylcellulose, Fed
[21] = female, beagle, dog, plasma, po, 6.5 mg/kg, 50 mg Pill, Fasted
[22] = female, beagle, dog, plasma, po, 6.5 mg/kg, 50 mg Pill, Fed

apparent inhibition (CYP2C9): No apparent inhibition | IC50 [1]: 0.49 nM and 0.87 nM and 0.22 nM and 0.17 nM | IC90 [1]: 0.77 nM and 1.03 nM and 0.46 nM and 0.41 nM | Cmax [2, 6]: 70 ± 10 nM | Tmax [2, 6]: 4 ± 3.1 h | AUC(0-t) ([2]; oral, 10 mg, multiple dose 10 mg, Day 1, read-out: AUClast): 1.1 ± 0.2 µM·h | half-life ([2]; oral, 10 mg, multiple dose 10 mg, Day 1, read-out: t½ (converted)): 1920 ± 1380 min | Cmax [2, 7]: 130 ± 50 nM | Tmax [2, 7]: 10 ± 6.9 h | AUC(0-t) ([2]; oral, 10 mg, multiple dose 10 mg, Day 11, read-out: AUClast): 2.4 ± 1.1 µM·h | half-life ([2]; oral, 10 mg, multiple dose 10 mg, Day 11, read-out: t½ (converted)): 3000 ± 2460 min | Cmax [2, 8]: 600 ± 200 nM | Tmax [2, 8]: 4.2 ± 3 h | AUC(0-t) ([2]; oral, 50 mg, multiple dose 50 mg, Day 1, read-out: AUClast): 8.3 ± 2.9 µM·h | half-life ([2]; oral, 50 mg, multiple dose 50 mg, Day 1, read-out: t½ (converted)): 1140 ± 600 min | Cmax [2, 9]: 900 ± 100 nM | Tmax [2, 9]: 3.2 ± 2 h | AUC(0-t) ([2]; oral, 50 mg, multiple dose 50 mg, Day 11, read-out: AUClast): 13.5 ± 3.4 µM·h | half-life ([2]; oral, 50 mg, multiple dose 50 mg, Day 11, read-out: t½ (converted)): 1500 ± 660 min | Cmax [2, 10]: 1400 ± 700 nM | Tmax [2, 10]: 2.3 ± 0.8 h | AUC(0-t) ([2]; oral, 150 mg, multiple dose 150 mg, Day 1, read-out: AUClast): 16 ± 6.8 µM·h | half-life ([2]; oral, 150 mg, multiple dose 150 mg, Day 1, read-out: t½ (converted)): 960 ± 462 min | Cmax [2, 11]: 3000 ± 1200 nM | Tmax [2, 11]: 2 h | AUC(0-t) ([2]; oral, 150 mg, multiple dose 150 mg, Day 11, read-out: AUClast): 33 ± 16 µM·h | half-life ([2]; oral, 150 mg, multiple dose 150 mg, Day 11, read-out: t½ (converted)): 1140 ± 780 min | Cmax [2, 12]: 7300 ± 6000 nM | Tmax [2, 12]: 2 h | AUC(0-t) ([2]; oral, 450 mg, multiple dose 450 mg, Day 1, read-out: AUClast): 57 ± 39 µM·h | half-life ([2]; oral, 450 mg, multiple dose 450 mg, Day 1, read-out: t½ (converted)): 720 ± 240 min | Cmax [2, 13]: 9300 ± 5400 nM | Tmax [2, 13]: 2 h | AUC(0-t) ([2]; oral, 450 mg, multiple dose 450 mg, Day 11, read-out: AUClast): 76 ± 33 µM·h | half-life ([2]; oral, 450 mg, multiple dose 450 mg, Day 11, read-out: t½ (converted)): 840 ± 240 min | Cmax [2, 14]: 570 ± 300 nM | Tmax [2, 14]: 2.2 ± 0.4 h | AUC(0-t) ([2]; po, 50 mg, single dose 50 mg, oral solution, read-out: AUC0-24): 6.5 ± 2.2 µM·h | half-life ([2]; po, 50 mg, single dose 50 mg, oral solution, read-out: t1/2 (converted)): 768 ± 174 min | Cmax [2, 15]: 2200 ± 500 nM | Tmax [2, 15]: 2.3 ± 0.5 h | AUC(0-t) ([2]; po, 150 mg, single dose 150 mg, oral solution, read-out: AUC0-24): 21.7 ± 6.1 µM·h | half-life ([2]; po, 150 mg, single dose 150 mg, oral solution, read-out: t1/2 (converted)): 666 ± 168 min | Cmax [2, 16]: 3000 ± 1500 nM | Tmax [2, 16]: 2.7 ± 1.5 h | AUC(0-t) ([2]; po, 300 mg, single dose 300 mg, oral solution, read-out: AUC0-24): 23.6 ± 5.9 µM·h | half-life ([2]; po, 300 mg, single dose 300 mg, oral solution, read-out: t1/2 (converted)): 588 ± 150 min | Cmax [2, 17]: 11200 ± 7000 nM | Tmax [2, 17]: 2.3 ± 0.5 h | AUC(0-t) ([2]; po, 600 mg, single dose 600 mg, oral solution, read-out: AUC0-24): 90 ± 50 µM·h | half-life ([2]; po, 600 mg, single dose 600 mg, oral solution, read-out: t1/2 (converted)): 846 ± 408 min | Cmax [2, 18]: 18200 ± 7600 nM | Tmax [2, 18]: 2 h | AUC(0-t) ([2]; po, 1000 mg, single dose 1000 mg, oral solution, read-out: AUC0-24): 110 ± 49 µM·h | half-life ([2]; po, 1000 mg, single dose 1000 mg, oral solution, read-out: t1/2 (converted)): 498 ± 66 min | Liver weight ([3]; female, CD-1, mouse, 4 days): 1.2 ± 0.1 | liver weight change as compared to vehicle control ([3]; female, CD-1, mouse, 4 days): 5% | fraction unbound at 10 μM ([4]; human plasma): 0.005 | fraction unbound at 10 μM ([4]; mixed breeds, dog plasma): 0.003 | fraction unbound at 10 μM ([4]; mixed breeds, rat plasma): 0.002 | Cmax ([5]; 0.5% Methylcellulose, 5 mg/kg, Fasted): 12400 ng/mL | reduction in oral bioavailability and dose-adjusted AUC, IR pill compared to oral suspension ([5]; fasted or fed comparator dogs): ~30% | AUC(0-inf) [5, 19]: 67800 ng·h/mL | Tmax [5, 19]: 2 h | bioavailability [5, 19]: 52% | AUC(0-inf) [5, 20]: 24300 ng·h/mL | Tmax [5, 20]: 1.3 h | bioavailability [5, 20]: 19% | Cmax ([5]; female, beagle, dog, plasma, po, 5 mg/kg, 0.5% Methylcellulose, 5 mg/kg, Fed, read-out: Cmax): 3700 ng/mL | AUC(0-inf) [5, 21]: 41000 ng·h/mL | Tmax [5, 21]: 2 h | bioavailability [5, 21]: 24% | AUC(0-inf) [5, 22]: 14400 ng·h/mL | Tmax [5, 22]: 1.7 h | bioavailability [5, 22]: 8.4% | Cmax ([5]; female, beagle, dog, plasma, po, 6.5 mg/kg, 50 mg Pill, 6.5 mg/kg, Fasted, read-out: Cmax): 7600 ng/mL | Cmax ([5]; female, beagle, dog, plasma, po, 6.5 mg/kg, 50 mg Pill, 6.5 mg/kg, Fed, read-out: Cmax): 3200 ng/mL | half-life ([5]; female, beagle, dog, plasma, IV, 4:1 PEG400:Water, 0.67 mg/kg, Fasted): 780 min | apparent inhibition (CYP2C19): No apparent inhibition
Compound: CCOc1ccc(-c2ccc(Cn3c(CC(C)(C)C(=O)[O-])c(SC(C)(C)C)c4cc(OCc5ccc(C)cn5)ccc43)cc2)cn1.[Na+] [Compound 2, sodium 3-[3-(tert-butylsulfanyl)-1-[4-(6-ethoxy-pyridin-3-yl)benzyl]-5-(5-methyl-pyridin-2-yl-methoxy)-1H-indol-2-yl]-2,2-dimethylpropionate]
Liver weight (% body weight) ([3]; female, CD-1, mouse, 4 days): 4.4 % body weight | necropsy findings ([3]; mouse): no gross abnormalities
